Experimental data from US11559575B2, “Multi-epitopic peptide compounds and vaccines against leishmaniasis” (INSTITUT DE RECHERCHE POUR LE DEVELOPPEMENT, priority 2018, dated 2023).
“Also recorded” adds a separate entry of the source.

How the values were obtained:
HLA alleles of class I = assay: Affinity of epitopes for HLA alleles of class I; assay type: binding, human; conditions: for Affinity HLA alleles of class I: PSA KC-2.6 core; for Concatenation affinity allele CII: PSA KC-2.6 Peptide CII; for Affinity allele class I: LmLRAB-IIA peptides; for Affinity for the HLA alleles of class I: H2B-1 epitopes, Table 1
Excerpt: (§1) The multiepitopic peptide compounds (24 to 40-mer), having a high affinity with a maximized number of HLA molecules of class I and of class II, such as the affinities for the alleles HLA of class I and HLA of class II of the epitopes in the peptides of the sequences SEQ ID NO: 22, 23, 65, 66, 69, 73, 77, 96, 97, 137, 138, and 157, 185, have a high immunoprevalent potential corresponding to an optimal vaccine coverage, in particular for the populations concerned. The degree of coverage of the peptide compounds of the invention show a very high added value compared with the peptides of the prior art.

HLA alleles of class II = assay: Affinity of epitopes for HLA alleles of class II; assay type: binding, human; conditions: for Concatenation affinity for the HLA alleles of class II: H2B-II peptides
Excerpt: as §1

[1] = LmlRAB-IIB Peptide CII, Table 2

LTDEKTSLV (listed as Leishmania infantum) [SEQ ID NO: 148]
Affinity HLA alleles of class I (HLA alleles of class I; Table 3): HLA-A*02:01,; also recorded: HLA-A*02:03,; also recorded: HLA-A*02:06,; also recorded: HLA-A*68:02
Concatenation affinity for HLA alleles of class II (HLA alleles of class II; PSA KC-2.6 core, Table 3): HLA-DRB1*04:01

DVHYSEVSA (Leishmania major) [SEQ ID NO: 128]
Concatenation affinity for HLA alleles of class I (HLA alleles of class I; [1]): HLA-A*68*02

MPSGSDYSH (listed as Leishmania infantum) [SEQ ID NO: 182]
Concatenation affinity for HLA alleles of class I (HLA alleles of class I; PSA KC-2.7 peptides, Table 3): HLA-B*35:01, HLA-B*53:01

IVADHMPHL (Leishmania major) [SEQ ID NO: 89]
Affinity for HLA alleles of class I (HLA alleles of class I; LmLRAB-IIA core, Table 2): HLA-A*02:01,; also recorded: HLA-A*02:03,; also recorded: HLA-A*02:06
Concatenation affinity for HLA alleles of class II (HLA alleles of class II; LmLRAB-IIA core, Table 2): HLA-DRB1*03:01,; also recorded: HLA-DRB1*13:02,; also recorded: HLA-DRB3*01:01

KGRSENAIV (Leishmania major) [SEQ ID NO: 131]
Concatenation affinity for HLA alleles of class I (HLA alleles of class I; [1]): HLA-A*30:01

FDLFTDVHY (Leishmania major) [SEQ ID NO: 130]
Concatenation affinity for HLA alleles of class I (HLA alleles of class I; [1]): HLA-A*02:01, HLA-B*35:01

RSARSGEGY (listed as Leishmania infantum) [SEQ ID NO: 155]
Concatenation affinity allele CII (HLA alleles of class I; Table 3): HLA-A*30:02, HLA-B*15:01, HLA-B*57:01,; also recorded: HLA-B*58:01

ARSARSGEGY (listed as Leishmania infantum) [SEQ ID NO: 151]
Concatenation affinity allele CII (HLA alleles of class I; Table 3): HLA-B*15:01

MIRDLDFSNM (listed as Leishmania infantum) [SEQ ID NO: 181]
Concatenation affinity for HLA alleles of class I (HLA alleles of class I; PSA KC-2.7 peptides, Table 3): HLA-B*15:01

KGRLHSVVG (Leishmania major) [SEQ ID NO: 92]
Affinity allele class I (HLA alleles of class I; Table 2): HLA-A*30:1

SDYSHSMIR (listed as Leishmania infantum) [SEQ ID NO: 177]
Affinity for HLA alleles of class I (HLA alleles of class I; PSA KC-2.7 core, Table 3): HLA-A*31:01,; also recorded: HLA-A*68:01
Concatenation affinity for HLA alleles of class II (HLA alleles of class II; PSA KC-2.7 core, Table 3): HLA-DRB1*07:01,; also recorded: HLA-DRB5*01:01

FLTDEKTSLV (listed as Leishmania infantum) [SEQ ID NO: 153]
Concatenation affinity allele CII (HLA alleles of class I; Table 3): HLA-A*01:01, HLA-A*02:01

NMGLLLSGT (listed as Leishmania infantum) [SEQ ID NO: 183]
Concatenation affinity for HLA alleles of class I (HLA alleles of class I; PSA KC-2.7 peptides, Table 3): HLA-A*02:02

VVGRHLSIV (Leishmania major) [SEQ ID NO: 95]
Affinity allele class I (HLA alleles of class I; Table 2): HLA-A*02:03

HSMIRDLDF (listed as Leishmania infantum) [SEQ ID NO: 173]
Affinity for HLA alleles of class I (HLA alleles of class I; PSA KC-2.7 core, Table 3): HLA-B*35:01,; also recorded: HLA-B*58:01
Concatenation affinity for HLA alleles of class II (HLA alleles of class II; PSA KC-2.7 core, Table 3): HLA-DRB4*01:01

RLHSVVGRH (Leishmania major) [SEQ ID NO: 93]
Affinity allele class I (HLA alleles of class I; Table 2): HLA-A*03:01, HLA-A*30:02

VHYSEVSAK (Leishmania major) [SEQ ID NO: 136]
Concatenation affinity for HLA alleles of class I (HLA alleles of class I; [1]): HLA-A*03:01

FTDVHYSEV (Leishmania major) [SEQ ID NO: 121]
Affinity for HLA alleles of class I (HLA alleles of class I; LmlRAB-IIB core, Table 2): HLA-A*02:01,; also recorded: HLA-A*02:03,; also recorded: HLA-A*02:06,; also recorded: HLA-A*35:01,; also recorded: HLA-A*68:02
Concatenation affinity for HLA alleles of class II (HLA alleles of class II; LmlRAB-IIB core, Table 2): HLA-DRB1*07:01,; also recorded: HLA-DRB1*09:01,; also recorded: HLA-DRPA*01:03/; also recorded: DPB1*04:01,; also recorded: HLA-DPA1*01:03/; also recorded: DPB1*02:01

KEMPSGSDY (listed as Leishmania infantum) [SEQ ID NO: 180]
Concatenation affinity for HLA alleles of class I (HLA alleles of class I; PSA KC-2.7 peptides, Table 3): HLA-B*15:01, HLA-A*30:02,; also recorded: HLA-B*44:02, HLA-B*44:03

GSDYSHSMIR (listed as Leishmania infantum) [SEQ ID NO: 179]
Concatenation affinity for HLA alleles of class I (HLA alleles of class I; PSA KC-2.7 peptides, Table 3): HLA-A*03:01

ENAIVTSRK (Leishmania major) [SEQ ID NO: 129]
Concatenation affinity for HLA alleles of class I (HLA alleles of class I; [1]): HLA-A*68:01

LFTDVHYSEV (Leishmania major) [SEQ ID NO: 133]
Concatenation affinity for HLA alleles of class I (HLA alleles of class I; [1]): HLA-A*01:01

FLTDEKTSL (listed as Leishmania infantum) [SEQ ID NO: 146]
Affinity HLA alleles of class I (HLA alleles of class I; Table 3): HLA-A*02:01,; also recorded: HLA-A*02:03,; also recorded: HLA-A*02:06,; also recorded: HLA-B*39:01

SVVGRHLSI (Leishmania major) [SEQ ID NO: 94]
Affinity allele class I (HLA alleles of class I; Table 2): HLA-A*02:03, HLA-A*02:06, HLA-A*32:01,; also recorded: HLA-B*08:01

ARSGEGYFL (listed as Leishmania infantum) [SEQ ID NO: 152]
Concatenation affinity allele CII (HLA alleles of class I; Table 3): HLA-B*39:01

LTDEKTSLVY (listed as Leishmania infantum) [SEQ ID NO: 154]
Concatenation affinity allele CII (HLA alleles of class I; Table 3): HLA-A*01:01, HLA-B*15:01

TSRKDQEEV [SEQ ID NO: 135]
Concatenation affinity for HLA alleles of class I (HLA alleles of class I; [1]): HLA-B*15:01, HLA-A*30:01, HLA-A*68:02

KVQEEVFDL (Leishmania major) [SEQ ID NO: 132]
Concatenation affinity for HLA alleles of class I (HLA alleles of class I; [1]): HLA-A*02:01, HLA-A*02:06, HLA-A*32:01

EVFDLFTDV (Leishmania major) [SEQ ID NO: 120]
Affinity for HLA alleles of class I (HLA alleles of class I; LmlRAB-IIB core, Table 2): HLA-A*02:03,; also recorded: HLA-A*02:06,; also recorded: HLA-A*68:02

SMSHRTMKSM (Leishmania major) [SEQ ID NO: 19]
Affinity for the HLA alleles of class I (HLA alleles of class I): HLA-B*15:01,; also recorded: HLA-B*57:01,; also recorded: HLA-A*02:03,; also recorded: HLA-B*08:01

KAINAQMSM (Leishmania major) [SEQ ID NO: 3]
Affinity for the HLA alleles of class I (HLA alleles of class I): HLA-B*58:01,; also recorded: HLA-B*57:01,; also recorded: HLA-B*15:01,; also recorded: HLA-A*30:01
Affinity for the HLA alleles of class II (HLA alleles of class II; H2B-1 epitopes, Table 1): DRB4*01:01

SENAIVTSR (Leishmania major) [SEQ ID NO: 134]
Concatenation affinity for HLA alleles of class I (HLA alleles of class I; [1]): HLA-A*31:01, HLA-B*44:03, HLA-A*68:01

SMIRDLDFS (listed as Leishmania infantum) [SEQ ID NO: 184]
Concatenation affinity for HLA alleles of class I (HLA alleles of class I; PSA KC-2.7 peptides, Table 3): HLA-A*02:03, HLA-A*02:06

AINAQMSMSHRTMKI (Leishmania major) [SEQ ID NO: 40]
Concatenation affinity for the HLA alleles of class II (HLA alleles of class II; Table 1): HLA-DRB1*01:01, HLA-DRB1*04:01, HLA-DRB1*09:01,; also recorded: HLA-DRB1*15:01, HLA-DRB4*01:01, HLA-DRB5*01:01,; also recorded: HLA-DRB3*01:01, HLA-DRB1*11:01, HLA-DRB1*07:01

TMKSMSHRTM (Leishmania major) [SEQ ID NO: 21]
Affinity for the HLA alleles of class I (HLA alleles of class I): HLA-B*15:01,; also recorded: HLA-B*08:01

LKAINAQMSMSHRTM (Leishmania major) [SEQ ID NO: 38]
Concatenation affinity for the HLA alleles of class II (HLA alleles of class II; Table 1): HLA-DRB1*07:01, HLA-DRB1*04:01, HLA-DRB1*04:05,; also recorded: HLA-DRB1*09:01, HLA-DRB1*11:01, HLA-DRB1*15:01,; also recorded: HLA-DRB5*01:01, HLA-DRB1*01:01, HLA-DRB4*01:01,

DYSHSMIRDLDFSNM (listed as Leishmania infantum) [SEQ ID NO: 158]
Concatenation affinity for HLA alleles of class II (HLA alleles of class II; PSA KC-2.7 peptides, Table 3): HLA-DRB1*04:01, HLA-DRB1*04:05,; also recorded: HLA-DRB1*07:01, HLA-DRB1*09:01,; also recorded: HLA-DRB1*12:01, HLA-DRB4*01:01,; also recorded: HLA-DPA1*02:01/DPB1*14:01

GSDYSHSMIRDLDFS (listed as Leishmania infantum) [SEQ ID NO: 159]
Concatenation affinity for HLA alleles of class II (HLA alleles of class II; PSA KC-2.7 peptides, Table 3): HLA-DRB1*01:01, HLA-DRB1*04:05,; also recorded: HLA-DRB1*07:01, HLA-DRB1*09:01,; also recorded: HLA-DRB4*01:01, HLA-DRB5*01:01,; also recorded: HLA-DPA1*02:01/DPB1*14:01

NAQMSMSHR (Leishmania major) [SEQ ID NO: 46]
Affinity HLA alleles of class II (HLA alleles of class II; H2B-II core epitopes, Table 1): HLA-DRB1*01:01

KGRLHSVVGRHLSIV (Leishmania major) [SEQ ID NO: 78]
Concatenation affinity for HLA alleles of class II (HLA alleles of class II; LmLRAB-IIA peptides, Table 2): HLA-DRB1*07:01,; also recorded: HLA-DRB5*01:01,; also recorded: HLA-DRB1*11:01,; also recorded: HLA-DRB1*15:01,; also recorded: HLA-DRB1*09:01,; also recorded: HLA-DRB4*01:01

KRSWNVYVGRSLKAI (Leishmania major) [SEQ ID NO: 27]
Concatenation affinity for the HLA alleles of class II (HLA alleles of class II; Table 1): HLA-DRB1*01:01, HLA-DRB1*03:01, HLA-DRB1*04:01,; also recorded: HLA-DRB1*11:01, HLA-DRB1*13:02, HLA-DRB1*07:01,; also recorded: HLA-DRB1*09:01, HLA-DRB1*15:01, HLA-DRB5*01:01,; also recorded: HLA-DPA1*02:01/DPB1*01:01

RSARSGEGYF (listed as Leishmania infantum) [SEQ ID NO: 156]
Concatenation affinity allele CII (HLA alleles of class I; Table 3): HLA-B*15:01, HLA-B*58:01

YFLTDEKTSLVYGDG (listed as Leishmania infantum) [SEQ ID NO: 145]
Concatenation affinity for HLA alleles of class II (HLA alleles of class II; PSA KC-2.6 peptides, Table 3): HLA-DRB1*01:01, HLA-DRB1*03:01,; also recorded: HLA-DRB1*04:01, HLA-DRB3*01:01,; also recorded: HLA-DRB3*02:02,; also recorded: HLA-DPA1*03:01/DPB1*04:02,; also recorded: HLA-DPA1*02:01/DPB1*14:01

VQEEVFDLF (Leishmania major) [SEQ ID NO: 126]
Affinity for HLA alleles of class I (HLA alleles of class I; LmlRAB-IIB core, Table 2): HLA-A*02:06
